Experimental data from BindingDB's records for doi:10.1080/14756360701408754 (Pharmaceutical Research Centre, 2008).

Target: T1, Seed linoleate 13S-lipoxygenase-1 (Glycine max, UniProt P08170)
T1 sequence (P08170 whole entry): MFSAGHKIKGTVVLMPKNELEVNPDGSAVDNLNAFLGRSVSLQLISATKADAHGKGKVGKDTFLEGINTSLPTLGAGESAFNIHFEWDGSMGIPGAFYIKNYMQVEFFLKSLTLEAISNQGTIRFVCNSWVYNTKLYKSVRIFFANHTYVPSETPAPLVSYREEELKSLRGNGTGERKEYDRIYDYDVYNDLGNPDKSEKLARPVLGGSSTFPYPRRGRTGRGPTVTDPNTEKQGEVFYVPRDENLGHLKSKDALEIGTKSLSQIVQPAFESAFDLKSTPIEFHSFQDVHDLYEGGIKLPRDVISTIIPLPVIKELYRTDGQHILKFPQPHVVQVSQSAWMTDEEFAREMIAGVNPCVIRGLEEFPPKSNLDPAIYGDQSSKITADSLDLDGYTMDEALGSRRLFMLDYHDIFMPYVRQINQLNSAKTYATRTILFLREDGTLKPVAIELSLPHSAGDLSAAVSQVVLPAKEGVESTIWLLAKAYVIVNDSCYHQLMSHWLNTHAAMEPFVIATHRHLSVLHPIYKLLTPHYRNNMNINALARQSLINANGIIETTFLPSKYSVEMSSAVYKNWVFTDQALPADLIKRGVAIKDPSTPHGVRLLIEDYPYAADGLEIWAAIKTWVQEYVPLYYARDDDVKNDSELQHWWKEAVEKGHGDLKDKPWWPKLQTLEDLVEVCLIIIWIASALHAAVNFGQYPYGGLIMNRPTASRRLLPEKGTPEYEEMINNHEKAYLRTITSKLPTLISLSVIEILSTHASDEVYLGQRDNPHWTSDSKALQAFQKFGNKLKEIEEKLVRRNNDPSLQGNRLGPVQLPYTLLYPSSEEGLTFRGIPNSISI
Assay: Inhibition Assay
Conditions: pH 8; 25 °C
Description: In vitro liposygenase inhibition assay activity was measured by modifying the spectrophotometric method developed by Tappel. The compound was prepared in methanol at various concentrations ([…]). The inhibition by lipoxygenase activity by 50% (IC50) was determined by monitoring the effect of increasing concentrations of these compounds in the assays on the degree of inhibition.

| IC50 | Compound |
| --- | --- |
| 30.8 µM | CCOc1ccc(C(C2C(=O)CC(C)(C)CC2=O)C2C(=O)CC(C)(C)CC2=O)cc1 [Tetraketone, 10] |
| 21.3 µM | COc1ccc(C(C2C(=O)CC(C)(C)CC2=O)C2C(=O)CC(C)(C)CC2=O)cc1 [Tetraketone, 8] |
| 26.4 µM | CC1(C)CC(=O)C(C(c2ccc(O)cc2)C2C(=O)CC(C)(C)CC2=O)C(=O)C1 [Tetraketone, 6] |
| 33 µM | CC1(C)CC(=O)C(C(c2ccccc2)C2C(=O)CC(C)(C)CC2=O)C(=O)C1 [Tetraketone, 2] |
| 52.9 µM | CC1(C)CC(=O)C(C(c2cccc(Br)c2)C2C(=O)CC(C)(C)CC2=O)C(=O)C1 [Tetraketone, 14] |
| 17.5 µM | CN(C)c1ccc(C(C2C(=O)CC(C)(C)CC2=O)C2C(=O)CC(C)(C)CC2=O)cc1 [Tetraketone, 11] |
| 16.3 µM | Cc1ccc(C(C2C(=O)CC(C)(C)CC2=O)C2C(=O)CC(C)(C)CC2=O)cc1 [Tetraketone, 3] |

Second part, the compound before the results:

| Compound | IC50 |
| --- | --- |
| COc1ccc(C(C2C(=O)CC(C)(C)CC2=O)C2C(=O)CC(C)(C)CC2=O)c(OC)c1 [Tetraketone, 9] | 33.1 µM |
| Cc1ccc(C(C2C(=O)CC(C)(C)CC2=O)C2C(=O)CC(C)(C)CC2=O)o1 [Tetraketone, 22] | 12.5 µM |
| CC1(C)CC(=O)C(C(c2ccc(/C(Br)=C/c3ccccc3)cc2)C2C(=O)CC(C)(C)CC2=O)C(=O)C1 [Tetraketone, 20] | 35.4 µM |
| CC1(C)CC(=O)C(C(c2ccc(O)c(Br)c2)C2C(=O)CC(C)(C)CC2=O)C(=O)C1 [Tetraketone, 15] | 27.1 µM |
| CC1(C)CC(=O)C(C(c2ccccc2Cl)C2C(=O)CC(C)(C)CC2=O)C(=O)C1 [Tetraketone, 12] | 28.4 µM |
| CC1(C)CC(=O)C(C(c2ccco2)C2C(=O)CC(C)(C)CC2=O)C(=O)C1 [Tetraketone, 21] | 51.5 µM |
| CC1(C)CC(=O)C(C(c2ccccc2[N+](=O)[O-])C2C(=O)CC(C)(C)CC2=O)C(=O)C1 [Tetraketone, 16] | 191 µM |
| CC1(C)CC(=O)C(C(c2ccccc2O)C2C(=O)CC(C)(C)CC2=O)C(=O)C1 [Tetraketone, 4] | 198 µM |
| CC1(C)CC(=O)C(C(c2ccc(/C=C/c3ccccc3)cc2)C2C(=O)CC(C)(C)CC2=O)C(=O)C1 [Tetraketone, 19] | 7.8 µM |
| COc1ccccc1C(C1C(=O)CC(C)(C)CC1=O)C1C(=O)CC(C)(C)CC1=O [Tetraketone, 7] | 196 µM |
